Data as given in PubChem BioAssay (NCI).
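Growth conditions: 96-well plates. Treatment: test compound, 48 hours, 5 concentrations. Analysis: linear interpolation between bracketing concentrations; unreached endpoints set to highest concentration. Definition used: TGI = concentration required for complete inhibition of growth.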

Assays:
Assay in all cases: DTP human tumour cell line panel, 48 h
DMS 273 small cell lung = tested on: DMS 273 small cell lung
LXFL 529 NSCLC = tested on: LXFL 529 NSCLC
M19-MEL melanoma = tested on: M19-MEL melanoma
RXF-631 renal = tested on: RXF-631 renal
XF 498 CNS = tested on: XF 498 CNS
MDA-N = tested on: MDA-N

| Compound | TGI (DMS 273 small cell lung) [µM] | TGI (LXFL 529 NSCLC) [µM] | TGI (M19-MEL melanoma) [µM] | TGI (RXF-631 renal) [µM] | TGI (XF 498 CNS) [µM] | TGI (MDA-N) [µM] |
| --- | --- | --- | --- | --- | --- | --- |
| O=C(N/C(=C\c1cccc([N+](=O)[O-])c1)c1nc2ccc([N+](=O)[O-])cc2[nH]1)c1ccccc1 | > 100 | 75.1 | > 100 | > 100 | 59.8 |  |
| CCc1ccccc1NC(=O)C1=C(C)NC(C)=C(C(=O)Nc2ccccc2CC)C1c1ccc2c(c1)OCO2 |  | 98.4 | > 100 |  | 70.4 |  |
| CC1CN1C(=O)NCCCCCCNC(=O)N1CC1C (stereo not drawn) | > 100 | > 100 | > 100 |  | > 100 | > 100 |
| COc1cc(Nc2nc3ccccc3nc2-c2cccs2)cc(OC)c1OC | > 100 | > 100 | > 100 |  | 76.6 |  |
| C[C@@H]1OC(=O)N2CCCC(=C3SCCCS3)C12 (stereo partly drawn) | > 100 | > 100 | > 100 |  | > 100 |  |
| CCN(CC)C(c1ccc(N(C)C)cc1)C(c1ccc(N(C)C)cc1)N(CC)CC (stereo not drawn) | > 73 | > 73 | > 73 | > 73 |  |  |
| Cc1cc(Cl)cc2c1NC(=O)C2(O)CC(=O)c1ccco1 (stereo not drawn) | > 100 | > 100 | 30.9 | > 100 | > 100 | 22.9 |
| Nc1cccc(S(=O)(=O)NCC(=O)O)c1 | > 100 | > 100 | > 100 | > 100 | > 100 |  |
| NC1=NC(c2ccccc2)CC(c2cc(Cl)ccc2O)=N1 (stereo not drawn) | 25.6 | 28.3 | 29.5 |  | 33.7 |  |
| CC(C)(C)c1cc(CCC(=O)Nc2ccc(Cl)cc2)nc(NC#N)n1 | > 100 | > 100 | > 100 |  |  |  |
| CCOC(=S)SSSC(=S)OCC |  |  |  |  |  | > 100 |
| O=C(CC1(O)C(=O)Nc2ccccc21)c1ccncc1 (stereo not drawn) | > 100 | > 100 | > 100 |  |  |  |
| COc1ccc(C(=O)C#Cc2cnc(OC)nc2OC)cc1 |  |  |  |  |  | 3.89 |
| COc1ccc2nc3c(C(=O)NCCN(C)C)cccc3nc2c1 | 23.8 |  | 22.2 |  |  |  |
| COC1(OC)CC2OC1C1N=NN(C(=O)OC(C)(C)C)C21 (stereo not drawn) | > 100 | > 100 | > 100 | > 100 | > 100 |  |
| Cc1cc(N(CCC#N)CCC#N)ccc1/C=C1\N=C(c2cc([N+](=O)[O-])ccc2Cl)N(c2cccc(Cl)c2)C1=O | > 100 | > 100 | > 100 | > 100 |  |  |
| O=C(CCc1cc(-c2ccccc2)nc(=S)[nH]1)N(Cc1ccccc1)Cc1ccccc1 | > 100 | > 100 | > 100 |  | > 100 |  |
| O=C1c2cccc([N+](=O)[O-])c2C(=O)N1c1ncn[nH]1 |  |  |  |  |  | > 100 |
| O=[N+]([O-])c1ccc(C=NC2CCCCC2)cc1 | > 100 |  | > 100 | > 100 | > 100 |  |
| NC12CC3CC(C1)CC(C(=O)O)(C3)C2 | > 100 | > 100 | > 100 |  | > 100 |  |

| Compound | TGI (DMS 273 small cell lung) [µM] | TGI (LXFL 529 NSCLC) [µM] | TGI (M19-MEL melanoma) [µM] | TGI (RXF-631 renal) [µM] | TGI (XF 498 CNS) [µM] | TGI (MDA-N) [µM] |
| --- | --- | --- | --- | --- | --- | --- |
| COc1ccc2c(c1)[n+](=O)c(C(=O)C/C(=N/OCCCc1ccccc1)C(=O)NC13CC4CC(CC(C4)C1)C3)c(C)n2[O-] | > 100 | > 100 | > 100 | > 100 | > 100 |  |
| O=C(O)CCSC(=O)Nc1ccc([N+](=O)[O-])cc1 | > 100 | > 100 |  |  |  |  |
| NC(=O)COC(=O)c1c(Cl)nc2sccn12 | > 100 | > 100 | > 100 | > 100 | > 100 |  |
| N#C/C(=C\c1ccc2ccccc2c1)c1ccccc1 | 35.8 | > 100 | > 100 | > 100 |  |  |
| O=C1C(Cl)=C(NCCN2CCOCC2)C(=O)c2ncccc21 |  |  |  |  |  | 0.389 |
| CCOCC(=O)N[C@H]1CCc2cc(OC)c(OC)c(OC)c2-c2ccc(OC)c(=O)cc21 | > 100 | > 100 | > 100 |  | > 60 | < 0.0196 |
| O=C1c2ccccc2C(=O)N1CCc1ncc[nH]1 |  |  |  |  |  | > 100 |
| CC(=O)OCC1OC(NC(=S)N/N=C2\CC(c3ccccc3)Oc3ccccc32)C(OC(C)=O)C(OC(C)=O)C1OC(C)=O (stereo not drawn) | > 100 | > 100 | > 100 | > 100 | > 100 |  |
| O=C(O)C(=Cc1ccc(-c2ccccc2)cc1)C(=O)O |  |  |  |  |  | > 100 |
| CC(SC(=S)N1CCOCC1)c1cc2oc(=O)n(C)c2cc1Cl (stereo not drawn) | > 100 | > 100 | > 100 |  | > 100 |  |
| C/C(O)=C(\N=O)C(=O)Nc1ccc(Cl)cc1Cl | > 100 | > 100 | > 100 |  |  |  |
| COc1ccc(NC(=O)CC(=O)N/N=C/c2ccc(N(CCC#N)S(C)(=O)=O)cc2)cc1 | > 100 | > 100 | > 100 | > 100 |  |  |
| COc1cc(C(=O)CBr)c(OC)cc1C |  |  |  |  |  | > 100 |
| CC(C)(CO)N1CCN(C(=S)Nc2ccccc2)CC1 |  |  |  |  |  | > 100 |
| Cc1c(C(=O)C/C(=N/NC(=O)C[N+](C)(C)C)C(=O)Nc2ccc(Cl)cc2)[n+](=O)c2ccccc2n1O | > 100 | > 100 | > 100 | > 100 | > 100 |  |
| O=C(O)C(CS)Nc1c2ccccc2nc2ccccc12 (stereo not drawn) | > 100 | > 100 | > 100 |  | > 100 |  |
| O=C(O)c1nn(-c2ccccc2-c2n[nH]c(=O)[nH]c2=O)c(=O)[nH]c1=O |  |  |  |  |  | > 100 |
| CC(=O)O[C@H]1C(=O)[C@@]2(C)C(C(OC(=O)c3ccccc3)[C@]3(O)CC(OC(=O)[C@H](OC(=O)CCC(=O)O)C(NC(=O)c4ccccc4)c4ccccc4)C(C)=C1C3(C)C)C1(OC(C)=O)COC1C[C@@H]2O (stereo partly drawn) |  |  |  |  |  | < 0.01 |
| CCCC1N2CCCCC2[C@@H]2c3[nH]c4ccccc4c3CCN12 (stereo partly drawn) | > 100 | > 100 | > 100 |  | > 100 |  |
| O=C(CC1(O)C(=O)Nc2c(Cl)ccc(Cl)c21)c1ccc(F)cc1 (stereo not drawn) | > 100 | 92.1 |  | > 100 | 77.1 |  |
